Results from patent US10314816B2, “Antimicrobial compounds, compositions and methods of use thereof” (Wisconsin Alumni Research Foundation, priority 2012, dated 2019).

Columns and labels:
[1] = system: rabbit red blood cells (RBC); experiment: Rabbit red blood cell (RBC) hemolysis assay; type: cell-based
Description: Rabbit red blood cell (RBC) hemolysis assay. Rabbit RBCs from Lampire Biological Laboratories were used. Prior to preparing the RBCs, compound-containing PBS solutions were serially diluted into a 96-well plate (a final volume of 100 μL/well). The RBC lysis solution (Epicentre Biotechnology) was included as a positive control for hemolysis. For each assay, 1 mL of the RBC suspension was removed from the stock bottle and centrifuged for 2 minutes at 2000 rpm. The pelleted cells were resuspended in sterile PBS solution and centrifuged again. The cells were resuspended in PBS and diluted 5-fold into the same solution. 100 μL aliquots of RBCs were added into wells of a 96-well plate that contained an equal volume of a solution of compound in PBS. The plates were incubated for varying amounts of time depending on the microbial assay conditions to be emulated. For MIC-like conditions, plates were incubated for at least 17 hours at 30° C. or 37° C. For MSC-like conditions, the incubation time was either 2 hours or 6 hours at 30° C. or 37° C. During the incubation, un-lysed RBCs settled at the bottom of the wells. At the end of the incubation, 90 μL of the supernatant was transferred into the wells of a fresh 96-well plate, and the absorbance of the heme at 2=405 nm was measured.
To test the toxicity of DCAP against mammalian membranes, the hemolysis of rabbit red blood cells (RBC) was measured. These experiments were performed using conditions that closely mimicked the MIC and MSC assays. RBCs were treated with CCCP and DCAP at their MICs for the time periods used (17 hours) to determine the MIC of C. crescentus and S. aureus. After incubation, the absorbance of heme released from lysed RBCs was measured.
The MSC assay conditions were also reproduced to measure toxicity against RBCs. First, the minimum time required to obtain the MSC for DCAP treatment of C. crescentus (2 hours) and S. aureus (6 hours; data not shown) was determined.

GFP-MinD = experiment: Measurement of compound effects on MinD localization; type: cell-based, Bacillus subtilis; conditions: B. subtilis cells, treated 20 minutes, compared to DMSO
Description: Measurement of compound effects on MinD: B. subtilis DS4294 (amyE::Pxyl-GFP-minD cat) cells were grown to exponential phase (λ=600 nm, 0.4-0.7) in LB with incubation at 30° C. and 200 rpm shaking. Cells were induced for GFP-MinD production by adding xylose to the media to a final concentration of 0.1% (w/v) followed by incubating for 75 min. After induction, cells were treated with compounds for 20 minutes before imaging. Other details for imaging conditions and data analysis were identical to those described for MipZ-YFP, except for the definition of poles, and a set of criteria used for defining ‘wildtype’ protein localization. ‘Wildtype’ was defined as 1) GFP-MinD was bipolar, meaning there were two peaks, and both peaks were at the poles (1-20% and 80-100% of the normalized cell length); 2) GFP-MinD was at the mid-cell in addition to the bipolar localization, meaning there were three peaks with two of them at the poles and one at mid-cell; and 3) GFP-MinD was at an quaternary position (20-40% and 60-80% of the normalized cell length) in addition to the bipolar and mid-cell localization (the total number of peaks was 4 if there is one quaternary peak, and the total was 5 if there are two quaternary peaks). Because B. subtilis cells can initiate division prior to finishing an earlier division and the completion of septation, these normal cells have peaks at quaternary positions. […]

S. aureus FRI 100 = experiment: Minimum biofilm eradication concentration (MBEC); type: cell-based, Staphylococcus aureus; conditions: S. aureus FRI 100 biofilm
Description: Determination of the minimum biofilm inhibitory concentration of growth (bMIC) and biofilm eradication concentration (MBEC). Overnight cultures of C. crescentus and S. aureus were grown and diluted 100-fold into appropriate nutrient media. Aliquots of the diluted suspension were transferred into wells of 96-well plates (150 μL/well). 2-fold serial dilutions were performed for compound-containing wells. For every experiment, three replicates for each compound concentration tested were included. After transferring aliquots of the suspension, the plates were closed with specialized lids that have protruding pins (Nunc STP System), and the plates were sealed using Parafilm®. The plates were incubated in a static incubator at 30° C. (C. crescentus) or 37° C. (S. aureus) for 24 hours. After the cells had formed biofilms on the surface of the pins, the pins were rinsed by dipping them in M2 (C. crescentus) or PBS (S. aureus) solutions. To rinse the pins, clean, sterile 96-well plates were used (aliquots of 200 μL/well); each rinse lasted 10 sec. After washing away planktonic cells loosely bound to biofilms, the pins were inserted into a 96-well plate that was pre-aliquoted with nutrient media containing antibiotics (2-fold dilutions, a final volume of 150 μL/well). The plates were sealed with Parafilm®, and incubated for 17 hours, and the bMIC was measured at the end of the incubation by visual inspection. After the bMIC run, the rinse steps were repeated to remove planktonic cells, and the pins were inserted into a 96-well plate that was pre-aliquoted with drug-free nutrient media (aliquots of 150 μL/well). The plates were sealed with Parafilm®, incubated for 24 hours, and the MBEC was measured at the end of the incubation by visual inspection.
After performing bMIC experiments, biofilms growing on the pins of the lid were transferred to nutrient media devoid of antibiotics to measure the minimum concentration of antibiotic that prevented planktonic growth from biofilms in antibiotic-free nutrient media (MBEC). […]

[2] = compounds at their MICs for C. crescentus and S. aureus, 17 hours

Structure (SMILES)	Hemolysis of rabbit RBCs [1, 2]	Hemolysis of rabbit RBCs ([1]; high concentration, MSC conditions for S. aureus (FIG. 8C))	GFP-MinD localization (GFP-MinD)	MBEC (S. aureus FRI 100) [µM]	Hemolysis of rabbit RBCs ([1]; MSC assay conditions, 2 hours (C. crescentus) and 6 hours (S. aureus))	Hemolysis of rabbit RBCs ([1]; higher concentrations of DCAP (i.e., 50 μM), 17 hours)
N#CC(C#N)=NNc1cccc(Cl)c1 [CCCP, carbonyl cyanide m-chlorophenyl hydrazone]	did not significantly disrupt RBC membranes	toxic to RBCs at a high concentration	more diffuse fluorescence throughout the cell but had little effect on the location of the signal	80	–	–
OCC(CO)(CO)NCC(O)Cn1c2ccc(Cl)cc2c2cc(Cl)ccc21 (stereo not drawn) [DCAP, 2-((3-(3,6-dichloro-9H-carbazol-9-yl)-2-hydroxypropyl)amino)-2-(hydroxymethyl)propane-1,3-diol]	did not significantly disrupt RBC membranes	–	GFP-MinD mislocalized	>200	no significant toxicity	moderately toxic to RBCs
